Data on two compounds can be found in patent publication US20250144187A1, “COMBINATION OF HYDROLASES AND ANTI-MICROORGANISM DRUGS AND USES THEREOF” (CENTRE FOR EYE AND VISION RESEARCH LIMITED, priority 2023, published 2025).

A value given as a limit tells only on which side of the number the result lay.

Assay [1] relates to MRSA. The assay can be described thus: HADA-based synthesis of nascent cell wall. The note with it: cefdinir alone or combination with lysozyme, 2 hours. On the set-up: species or system Staphylococcus aureus. The protocol:
8) Synthesis and digestion of cell wait. According to the reported method [Kuru E et al., ACS Chem Biol 14, 2745-2756 (2019)], over-night cultured MRSA was inoculated into LB medium and cultured at 37° C. with shaking at 250 rpm until when its OD600 reached 0.6. Then, these mid-log-phase MRSA was treated with cefdinir (0.5 μg/ml), lysozyme (0.5 mg/ml) alone or their combination. Those treated with mezlocillin (1.0 μg/ml) and without any treatment served as antibiotic-control and untreated group, respectively. Meanwhile, MRSA suspension in control group was further divided into two groups. i.e., control group and no drug group, Next, 10 μM HCC-Amino-D-alanine (HADA) was added into all samples except those in no drug group, in which HADA was replaced by PBS. After 2- or 4-hour incubation, all bacteria were collected by centrifugation at 3220 g for 10 minutes and then washed by cold PBS for 3 times to remove redundant HADA.

The subject of another assay is MRSA in ARPE-19 cells. The experiment in a line: Cell-based infection model, cefdinir/lysozyme. Conditions: 0.25 μg/ml cefdinir combined with 0.5 mg/ml lysozyme.
The test system of another assay is MRSA-infected skin wound. The experiment in a line: Rat skin infection model, cefdinir/lysozyme. The note with it: combination therapy vs control or mono-therapy groups. In kind it is in vivo, Sprague Dawley (SD) rats. The protocol: 16) Rat skin Infection model. […] Others were infected by about 5×10^11 CFU of mid-log phase MRSA from our own collection. Briefly, all rats were firstly pre-depilated by using 10% Na2S to get an uncovered back area of 4 cm×4 cm prior to 24 hours for the anesthetization on rats. Then, the skin of anesthetized rat was removed until fascial region under sterile condition, followed by bacterial infection by spraying 5×10^11 CFU of MRSA suspension on wound (3 cm×3 cm). To collect these bacterial suspensions, mid-log phase MRSA would be collected by centrifugation at 4500 g for 15 minutes washed with PBS for 3 limes and re-suspended in cold PBS to get bacterial suspension with an initial density of about 4.0×10^11 CFU/ml according to pre-experiment. Next, 1.25 ml of bacterial suspensions was inoculated into wound, Normal saline was used to replace bacterial suspension in uninfected group. After 1 hour infection, wound of infected rat was covered by sterile medical gauze. All sterile medical gauzes were 0.2 g/cm^2, which were further covered by two layers of sterile gauzes and fixed by sterile tapes. After that, rats were monitored until they were fully awake, followed by return to their cages. After 24 hours infection, these sterile medical gauzes were replaced with new sterile medical gauzes. […] About 4-μm sections was analyzed by using the hematoxylin and eosin (H-E) staining. […]

In assay [2] the test system is MRSA. The assay can be described thus: TMT proteomics analysis, tedizolid phosphate/lysozyme. In kind it is cell-based, Staphylococcus aureus.
Where [3] appears, read: combination therapy compared with lysozyme alone, 1 hour.

Take `C=CC1=C(C(=O)O)N2C(=O)[C@@H](NC(=O)/C(=N\O)c3csc(N)n3)[C@H]2SC1` [cefdinir, Cefdinir]: the “reduction in HADA signal intensity from nascent cell wall” value with MRSA [1] is given as roughly 40%. The “drop of bacterial load in infected ARPE-19 cells” value with MRSA in ARPE-19 cells was 10^2 fold. Further, the “bacterial load in infected ARPE-19 cells” value in the assay with MRSA in ARPE-19 cells (MOI 50) is listed as 10^3 CFU/ml. Besides, in the assay with MRSA-infected skin wound, the “decrease in the level of IL-6 in wounds” value was greater than 16% and the “decrease in the level of ROS in wounds” value is listed as “more than 36%”.
Turning to `Cn1nnc(-c2ccc(-c3ccc(N4C[C@H](COP(=O)(O)O)OC4=O)cc3F)cn2)n1` [tedizolid phosphate, Tedizolid Phosphate], in the assay on MRSA [2] (combination therapy), the “level of FtsA” value amounted to 0.003 fold, the “level of OatA (Q2FV54)” value is “significant increase” and the “level of SepF” value worked out at 0.5 fold. Besides, in the assay with MRSA [2] (setting [3]), the “expression of ornithine carbamoyltransferase (Q5HCR3)” value was 0.5 fold, the “level of arginine deiminase (Q5HKU2)” value amounted to 3.9 fold and the “level of urease subunit alpha (A5IV71)” value is reported as 1,5 fold. Also, in the assay on MRSA [2] (combination therapy, 1 hour), the “phosphoglycerate kinase (Q5HQV3) level” value was determined as 0.005 fold and the “probable malate:quinone oxidoreductase I (P65421) level” value worked out at 0.12 fold.
